Results: patent publication US5310930A, “Benzofuranylimidazole derivatives, a process for their preparation and therapeutical compositions containing the same” (priority 1991, dated 1994)
Read-outs that look alike come from different tables or passages of the source.

Assays:
[1] = Indian J. Chem. 1979, 18B, 254; cited from earlier work
[2] = Indian J. Chem. 1979, 18B, 254; cited from earlier work; remark: listed apart in the source
[3] = target: imidazoline preferring receptor (IR); assay: Displacement of 3H-idazoxan (4 nM) in the presence of (-)-adrenaline (IR affinity); format: binding, rat; conditions: for Ki: 3H-idazoxan (4 nM), (-)-adrenaline (10^-6 M), rat cerebral cortex, mean of 10 experiments; for Selectivity IR/α1: selectivity ratio for IR/alpha1 from Ki values; for Selectivity IR/α2: selectivity ratio for IR/alpha2 from Ki values
Protocol: (§1) Initial biological evaluation of alpha1 - and alpha2 -adrenoceptor and imidazoline preferring receptor (IR) affinities and selectivities in homogenized rat cerebral cortex were assessed by determining the Ki values of the compounds to displace ^3 H-prazosin ^3 H-clonidine as well as ^3 H-idazoxan in the presence of (-)-adrenaline according to the method of Olmos et al. (J. Neurochem. 1991, 57:1811-1813).
(§2) This in vitro model is particularly useful as an initial screening for studying the affinity and the selectivity of these compounds on the imidazoline receptors.

alpha1-adrenoceptor = assay: Displacement of 3H-prazosin (0.5 nM) (alpha1-adrenoceptor affinity); format: binding; conditions: rat cerebral cortex, mean of 10 experiments
Protocol: as §1, §2

alpha2-adrenoceptor = target: T1, alpha2-adrenoceptor (Rattus norvegicus, UniProt P22909); assay: Displacement of 3H-clonidine (2 nM) (alpha2-adrenoceptor affinity); format: binding
T1 sequence (P22909 1-465): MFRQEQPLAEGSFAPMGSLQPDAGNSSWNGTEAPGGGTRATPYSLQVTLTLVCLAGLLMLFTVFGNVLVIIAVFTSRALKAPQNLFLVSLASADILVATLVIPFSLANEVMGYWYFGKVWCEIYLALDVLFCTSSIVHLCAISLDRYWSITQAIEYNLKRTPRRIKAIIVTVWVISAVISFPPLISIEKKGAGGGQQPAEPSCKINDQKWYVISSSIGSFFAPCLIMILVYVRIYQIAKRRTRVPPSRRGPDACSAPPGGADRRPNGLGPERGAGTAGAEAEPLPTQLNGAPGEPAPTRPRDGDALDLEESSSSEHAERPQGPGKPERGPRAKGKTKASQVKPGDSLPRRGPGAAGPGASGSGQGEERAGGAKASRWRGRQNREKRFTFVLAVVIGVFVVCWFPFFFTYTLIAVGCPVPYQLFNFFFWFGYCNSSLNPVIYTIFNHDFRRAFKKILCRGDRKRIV

rats = assay: In vivo feeding behavior in rats (cumulative food intake after i.p. administration); design: species or system rat; conditions: for hyperphagic potency relative to idazoxan: 25 mg/kg i.p. versus idazoxan 10 mg/kg i.p.; for acute hyperphagic effect respect to the control group / cumulative food intake: rats; for acute hyperphagic effect respect to the control group: 1-4 h, P<0.05; for cumulative food intake: N=5
Excerpt: At present, certain compounds of the invention (Examples 1,2 and 3) have shown an in vivo CNS functional activity, such as: feeding behavior in rats.

[4] = 3H-clonidine (2 nM), rat cerebral cortex, mean of 10 experiments, read-out: Affinity (Ki) Alpha2

## c1ccc2oc(C3=NCCN3)cc2c1
[1]
  antibacterial activity: without showing any noteworthy activity
[2]
  antifungal activity: without showing any noteworthy activity

## Cl.c1ccc2oc(-c3ncc[nH]3)cc2c1 [Example 1, 2-(benzofuran-2-yl)imidazole hydrochloride]
[3]
  Ki: 0.089 µM
  Selectivity IR/α1: 410
  Selectivity IR/α2: 1 125
alpha1-adrenoceptor
  Ki: 36.5 µM
alpha2-adrenoceptor
  Ki: 100 µM
rats
  hyperphagic potency relative to idazoxan: lower in potency than those induced by idazoxan
rats; 25 mg/kg i.p.
  acute hyperphagic effect respect to the control group: 7-10 fold
rats; 25 mg/kg i.p., 1 h
  cumulative food intake: 3.0 ± 2.0 g/kg body weight
rats; 25 mg/kg i.p., 2 h
  cumulative food intake: 4.0 ± 2.1 g/kg body weight
rats; 25 mg/kg i.p., 4 h
  cumulative food intake: 4.8 ± 2.0 g/kg body weight

## Cl.Cn1ccnc1-c1cc2ccccc2o1 [Example 2, 1-methyl-2-(benzofuran-2-yl)imidazole hydrochloride]
[3]
  Ki: 0.015 µM
  Selectivity IR/α1: 1740
  Selectivity IR/α2: 4140
[3]; data derived from binding studies
  potency for the I2-imidazoline receptors relative to idazoxan: equally as potent as idazoxan
[3]; data derived from binding studies (Table 1)
  selectivity relative to idazoxan: much more selective
alpha1-adrenoceptor
  Ki: 26.2 µM
alpha2-adrenoceptor; [4]
  Ki: 62.1 µM
rats
  hyperphagic potency relative to idazoxan: lower in potency than those induced by idazoxan
rats; 25 mg/kg i.p.
  acute hyperphagic effect respect to the control group: 7-10 fold
rats; 25 mg/kg i.p., 1 h
  cumulative food intake: 2.7 ± 1.5 g/kg body weight
rats; 25 mg/kg i.p., 2 h
  cumulative food intake: 3.0 ± 1.5 g/kg body weight
rats; 25 mg/kg i.p., 4 h
  cumulative food intake: 3.6 ± 1.4 g/kg body weight

## COc1ccc2cc(-c3ncc[nH]3)oc2c1.Cl [Example 3, 2-(6-methoxybenzofuran-2-yl)imidazole hydrochloride]
[3]
  Ki: 0.151 µM
  Selectivity IR/α1: 118
  Selectivity IR/α2: 372
alpha1-adrenoceptor
  Ki: 17.8 µM
alpha2-adrenoceptor; [4]
  Ki: 56.1 µM
rats
  hyperphagic potency relative to idazoxan: lower in potency than those induced by idazoxan
rats; 25 mg/kg i.p.
  acute hyperphagic effect respect to the control group: 7-10 fold

## Brc1ccc2oc(-c3ncc[nH]3)cc2c1.Cl [Example 6, 2-(5-bromobenzofuran-2-yl)imidazole hydrochloride]
[3]
  Ki: 0.117 µM
  Selectivity IR/α1: 284
  Selectivity IR/α2: 584
alpha1-adrenoceptor
  Ki: 33.3 µM
alpha2-adrenoceptor; [4]
  Ki: 68.4 µM

## COc1ccc2oc(-c3ncc[nH]3)cc2c1.Cl [Example 7, 2-(5-methoxybenzofuran-2-yl)imidazole hydrochloride]
[3]
  Ki: 0.163 µM
  Selectivity IR/α1: 27
  Selectivity IR/α2: 605
alpha1-adrenoceptor
  Ki: 4.41 µM
alpha2-adrenoceptor; [4]
  Ki: 98.7 µM

## CCn1ccnc1-c1cc2ccc(OC)cc2o1.Cl [Example 9, 1-ethyl-2-(6-methoxybenzofuran-2-yl)imidazole hydrochloride]
[3]
  Ki: 0.123 µM
  Selectivity IR/α1: 184
  Selectivity IR/α2: 580
alpha1-adrenoceptor
  Ki: 22.6 µM
alpha2-adrenoceptor; [4]
  Ki: 71.3 µM

## c1ccc2c(c1)OCC(C1=NCCN1)O2 (stereo not drawn) [Idazoxan, reference compound]
[3]
  Ki: 0.014 µM
alpha1-adrenoceptor
  Ki: 0.091 µM
rats; 10 mg/kg i.p., 1 h
  cumulative food intake: 3.7 ± 1.2 g/kg body weight
rats; 10 mg/kg i.p., 2 h
  cumulative food intake: 5.6 ± 2.1 g/kg body weight
rats; 10 mg/kg i.p., 4 h
  cumulative food intake: 7.4 ± 2.3 g/kg body weight

## COC1(C2=NCCN2)COc2ccccc2O1 (stereo not drawn) [RX 821002, reference compound]
[3]
  Ki: 44.9 µM
  Selectivity IR/α2: 0.00002
alpha2-adrenoceptor; [4]
  Ki: 0.0007 µM
